Measured values from article PMC4025572 (Biochemistry, 2014).

Biological target: human indolethylamine-N-methyltransferase (hINMT) (Homo sapiens, UniProt O95050)
Assay: radiometric […]SAM methyltransferase assay, pure hINMT
Format: biochemical

human indolethylamine-N-methyltransferase (hINMT), sequence (O95050 whole entry): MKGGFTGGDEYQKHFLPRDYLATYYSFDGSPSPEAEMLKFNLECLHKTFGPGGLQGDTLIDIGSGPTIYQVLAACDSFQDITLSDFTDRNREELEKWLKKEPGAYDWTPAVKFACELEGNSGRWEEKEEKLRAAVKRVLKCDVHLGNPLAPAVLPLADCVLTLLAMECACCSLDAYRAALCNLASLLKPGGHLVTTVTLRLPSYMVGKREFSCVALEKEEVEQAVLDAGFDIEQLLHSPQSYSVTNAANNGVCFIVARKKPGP

`CN(C)CCCNCCc1c[nH]c2ccccc12` [PDAT, N-[2-(1H-indol-3-yl)ethyl]-N′,N′-dimethylpropane-1,3-diamine] gave an IC50 of about 1000 µM.
